Like-named read-outs stand apart in the source and are kept apart here.
Tests used:
HCC827 EGFR Del 19 = assay: Colony formation assay, HCC827; type: cell-based, human
H1975 (EGFR L858R/T790M) = assay: Proliferation (CellTiter-Glo), H1975; type: cell-based, human
H460 (EGFR wt) = assay: Proliferation (CellTiter-Glo), H460; type: cell-based, human
H2122 (EGFR wt) = assay: Proliferation (CellTiter-Glo), H2122; type: cell-based, human
PC-9 (EGFR Del19) = assay: Proliferation (CellTiter-Glo), PC-9; type: cell-based, human
H1975 EGFR (L858R/T790M) = assay: Colony formation assay, H1975; type: cell-based, human
H3255 EGFR L858R = assay: Colony formation assay, H3255; type: cell-based, human
HCC827 (EGFR Del19) = assay: Proliferation (CellTiter-Glo), HCC827; type: cell-based, human
PC-9 EGFR del 19 = assay: Colony formation assay, PC-9; type: cell-based, human
H358 (EGFR wt) = assay: Proliferation (CellTiter-Glo), H358; type: cell-based, human
H3255 (EGFR L858R) = assay: Proliferation (CellTiter-Glo), H3255; type: cell-based, human
A431 (EGFR wt) = assay: Proliferation (CellTiter-Glo), A431; type: cell-based, human
A549 (EGFR wt) = assay: Proliferation (CellTiter-Glo), A549; type: cell-based, human
H23 (EGFR wt) = assay: Proliferation (CellTiter-Glo), H23; type: cell-based, human
H1975 cells [1] = assay: cells; conditions: Homo sapiens, NCI-H1975, read-out: Relative activity (%)
H1975 cells [2] = conditions: DMSO = 100
H460 cells = assay: Cell cycle analysis (FACS), H460; type: cell-based, human; conditions: H460, 48h, 0.3 μM
HCC827 cells = assay: Cell cycle analysis (FACS), HCC827; type: cell-based, human; conditions: HCC827, 24 h, 0.3 μM
PC-9 cells = assay: Cell cycle analysis (FACS), PC-9; type: cell-based, human; conditions: PC-9, 24h, 0.3 μM
H3255 cells = assay: Cell cycle analysis (FACS), H3255; type: cell-based, human; conditions: H3255, 24h, 0.3 μM
PC-9 xenograft = PC-9 xenograft mouse model; type: in vivo, Nude (Nu/Nu) mice; conditions: PC-9 xenograft, 25 mg/kg/day QD oral gavage
Method: (§1) Tumor diameter was measured 3 times weekly. Tumor volumes (V) were calculated by the equation (V = length × width × width/2). ALL experiments and procedures followed the guidelines of the Institutional Animal Care and Use Committees of National Institue of Biological Sciences, Beijing.

H1975 xenograft = H1975 xenograft mouse model; type: in vivo, Nude (Nu/Nu) mice; conditions: 25 mg/kg/day QD oral gavage
Method: as §1

H1975 cells [3] = assay: Cell cycle analysis (FACS), H1975; type: cell-based, human; conditions: 0.3 μM
[4] = Homo sapiens, NCI-H1975, H1975, EGFR L858R/T790M, 72 hours, read-out: GI50
[5] = HCC827, 10 days, read-out: EC50 colony formation
[6] = Homo sapiens, HCC827, 240 h, HCC827, 10 days, read-out: EC50 colony formation
[7] = Homo sapiens, NCI-H460, H460, EGFR wt, 72 hours, read-out: GI50
[8] = Homo sapiens, NCI-H2122, H2122, EGFR wt, 72 hours, read-out: GI50
[9] = Homo sapiens, PC-9, EGFR Del19, 72 hours, read-out: GI50
[10] = Homo sapiens, NCI-H1975, 240 h, H1975, 10 days, read-out: EC50 colony formation
[11] = Homo sapiens, NCI-H3255, 240 h, H3255, 10 days, read-out: EC50 colony formation
[12] = Homo sapiens, HCC827, EGFR Del19, 72 hours, read-out: GI50
[13] = Homo sapiens, 240 h, PC-9, 10 days, read-out: EC50 colony formation
[14] = PC-9, 10 days, read-out: EC50 colony formation
[15] = Homo sapiens, NCI-H358, H358, EGFR wt, 72 hours, read-out: GI50
[16] = Homo sapiens, NCI-H3255, H3255, EGFR L858R, 72 hours, read-out: GI50
[17] = Homo sapiens, A-431, A431, EGFR wt, 72 hours, read-out: GI50
[18] = Homo sapiens, A549, EGFR wt, 72 hours, read-out: GI50
[19] = Homo sapiens, H23, EGFR wt, 72 hours, read-out: GI50

C=CC(=O)Nc1cc(Nc2nccc(-c3cn(C)c4ccccc34)n2)c(OC)cc1N(C)CCN(C)C [AZD-9291, AZD9291]
EC50 (HCC827 EGFR Del 19; Homo sapiens, HCC827, 240 h, read-out: EC50 colony formation, HCC827, 10 days): 1.23 nM | EC50 (HCC827 EGFR Del 19; read-out: EC50 colony formation, HCC827, 10 days): 1.2 nM | GI50 (H1975 (EGFR L858R/T790M); Homo sapiens, NCI-H1975, 72 h): […] | GI50 (H460 (EGFR wt); Homo sapiens, NCI-H460, 72 h): 4 µM | GI50 (H2122 (EGFR wt); Homo sapiens, NCI-H2122, 72 h): 7.6 µM | GI50 (PC-9 (EGFR Del19); Homo sapiens, 72 h): 3 nM | EC50 (H1975 EGFR (L858R/T790M); Homo sapiens, NCI-H1975, 240 h, read-out: EC50 colony formation, H1975, 10 days): 118 nM | EC50 (H1975 EGFR (L858R/T790M); read-out: EC50 colony formation, H1975, 10 days): 118 nM | EC50 (H3255 EGFR L858R; Homo sapiens, NCI-H3255, 240 h, read-out: EC50 colony formation, H3255, 10 days): 5.59 nM | EC50 (H3255 EGFR L858R; read-out: EC50 colony formation, H3255, 10 days): 5.5 nM | GI50 (HCC827 (EGFR Del19); Homo sapiens, HCC827, 72 h): 4 nM | EC50 (PC-9 EGFR del 19; Homo sapiens, 240 h, read-out: EC50 colony formation, PC-9, 10 days): 2.51 nM | GI50 (H358 (EGFR wt); Homo sapiens, NCI-H358, 72 h): 9.4 µM | GI50 (H3255 (EGFR L858R); Homo sapiens, NCI-H3255, 72 h): 31 nM | GI50 (A431 (EGFR wt); Homo sapiens, A-431, 72 h): […] | GI50 (A549 (EGFR wt); Homo sapiens, A549, 72 h): 5 µM | GI50 (H23 (EGFR wt); Homo sapiens, 72 h): 4.2 µM

CC(=O)Nc1cccc(-n2c(=O)n(C3CC3)c(=O)c3c(Nc4ccc(I)cc4F)n(C)c(=O)c(C)c32)c1 [Trametinib]
activity at 1.1 µM (H1975 cells [1]): 52.2% | GI50 (H1975 (EGFR L858R/T790M); [4]): ~1100 nM | H1975 cell lines growth (H1975 cells [2]; single agent 0.014 μM): 77.33 | H1975 cell lines growth (H1975 cells [2]; single agent 0.04 μM): 79.50 | H1975 cell lines growth (H1975 cells [2]; single agent 0.37 μM): 80.79 | H1975 cell lines growth (H1975 cells [2]; single agent 1.1 μM): 77.20 | H1975 cell lines growth (H1975 cells [2]; single agent 10 μM): 20.59

CCC(=O)N1CCC[C@@H](n2nc(-c3ccc(Oc4ccccc4)cc3)c3c(N)ncnc32)C1 [PCI-R]
GI50 (H1975 (EGFR L858R/T790M); H1975, EGFR L858R/T790M, 72 hours, read-out: GI50): > 10000 nM | GI50 (H460 (EGFR wt); H460, EGFR wt, 72 hours, read-out: GI50): > 10 µM | GI50 (H2122 (EGFR wt); H2122, EGFR wt, 72 hours, read-out: GI50): > 10 µM | GI50 (PC-9 (EGFR Del19); PC-9, EGFR Del19, 72 hours, read-out: GI50): > 10000 nM | GI50 (HCC827 (EGFR Del19); HCC827, EGFR Del19, 72 hours, read-out: GI50): > 10000 nM | GI50 (H358 (EGFR wt); H358, EGFR wt, 72 hours, read-out: GI50): > 10 µM | GI50 (H3255 (EGFR L858R); H3255, EGFR L858R, 72 hours, read-out: GI50): > 10000 nM | GI50 (A431 (EGFR wt); A431, EGFR wt, 72 hours, read-out: GI50): > 10000 nM | GI50 (A549 (EGFR wt); A549, EGFR wt, 72 hours, read-out: GI50): > 10 µM | GI50 (H23 (EGFR wt); H23, EGFR wt, 72 hours, read-out: GI50): > 10 µM

C=CC(=O)Nc1cccc(Nc2nc(Nc3ccc(N4CCN(C(C)=O)CC4)cc3OC)ncc2C(F)(F)F)c1 [CO-1686]
EC50 (HCC827 EGFR Del 19; [5]): 11 nM | EC50 (HCC827 EGFR Del 19; [6]): 11.5 nM | %G0-G1 (H460 cells): 51.62% | %G2-M (H460 cells): 8.78% | GI50 (H1975 (EGFR L858R/T790M); [4]): 440 nM | GI50 (H460 (EGFR wt); [7]): 2.5 µM | GI50 (H2122 (EGFR wt); [8]): 1.4 µM | GI50 (PC-9 (EGFR Del19); [9]): 130 nM | EC50 (H1975 EGFR (L858R/T790M); [10]): 606 nM | EC50 (H3255 EGFR L858R; [11]): 211 nM | %G0-G1 (HCC827 cells): 83.96% | %G2-M (HCC827 cells): 3.62% | GI50 (HCC827 (EGFR Del19); [12]): 97 nM | EC50 (PC-9 EGFR del 19; [13]): 56.2 nM | EC50 (PC-9 EGFR del 19; [14]): 56 nM | GI50 (H358 (EGFR wt); [15]): 4.8 µM | GI50 (H3255 (EGFR L858R); [16]): 250 nM | GI50 (A431 (EGFR wt); [17]): 1200 nM | GI50 (A549 (EGFR wt); [18]): 0.83 µM | GI50 (H23 (EGFR wt); [19]): 1.4 µM | %G0-G1 (PC-9 cells): 85.49% | %G2-M (PC-9 cells): 8.97% | %G0-G1 (H3255 cells): 81.24% | %G2-M (H3255 cells): 9.84%

COc1cc2ncnc(Nc3ccc(F)c(Cl)c3)c2cc1OCCCN1CCOCC1 [Gefitinib]
anti-tumor activity (tumor growth) (PC-9 xenograft): almost completely suppressed the tumor growth | anti-tumor activity (tumor growth) (H1975 xenograft): completely lost the anti-tumor efficacy

C=CC(=O)Nc1cccc(Oc2nc(Nc3ccc(N4CCN(C)CC4)cc3OC)ncc2Cl)c1 [WZ-4002, WZ4002]
anti-tumor activity (tumor growth) (PC-9 xenograft): almost completely suppressed the tumor growth | %G0-G1 (H1975 cells [3]; H1975, 12h): 70.4% | %G2-M (H1975 cells [3]; H1975, 12h): 10.17% | %G0-G1 (H1975 cells [3]; H1975, 24h): 80.35% | %G2-M (H1975 cells [3]; H1975, 24h): 7.63% | %G0-G1 (H1975 cells [3]; H1975, 48h): 94.64% | %G2-M (H1975 cells [3]; H1975, 48h): 0.95% | EC50 (HCC827 EGFR Del 19; [5]): 10 nM | EC50 (HCC827 EGFR Del 19; [6]): 9.65 nM | %G0-G1 (H460 cells): 71.39% | %G2-M (H460 cells): 5.15% | GI50 (H1975 (EGFR L858R/T790M); [4]): 300 to 1000 nM | GI50 (H460 (EGFR wt); [7]): 4.8 µM | GI50 (H2122 (EGFR wt); [8]): 4.5 µM | GI50 (PC-9 (EGFR Del19); [9]): 44 nM | EC50 (H1975 EGFR (L858R/T790M); H1975, 10 days, read-out: EC50 colony formation): 12 nM | EC50 (H1975 EGFR (L858R/T790M); [10]): 12.2 nM | EC50 (H3255 EGFR L858R; H3255, 10 days, read-out: EC50 colony formation): 89 nM | EC50 (H3255 EGFR L858R; [11]): 89.1 nM | %G0-G1 (HCC827 cells): 79.74% | %G2-M (HCC827 cells): 5.62% | GI50 (HCC827 (EGFR Del19); [12]): 19 nM | anti-tumor activity (tumor growth) (H1975 xenograft): almost completely suppressed the tumor growth | EC50 (PC-9 EGFR del 19; [13]): 11.1 nM | EC50 (PC-9 EGFR del 19; [14]): 11 nM | GI50 (H358 (EGFR wt); [15]): > 10 µM | GI50 (H3255 (EGFR L858R); [16]): 120 nM | GI50 (A431 (EGFR wt); [17]): 1000 nM | GI50 (A549 (EGFR wt); [18]): > 10 µM | GI50 (H23 (EGFR wt); [19]): > 10 µM | %G0-G1 (PC-9 cells): 87.95% | %G2-M (PC-9 cells): 6.24% | %G0-G1 (H3255 cells): 81.96% | %G2-M (H3255 cells): 9.90%

From PMC4741607 (Oncotarget, 2015)
